Experimental data: US20250154554A1, “ANTIMICROBIAL SUSCEPTIBILITY” (priority 2022, published 2025)
Read-outs that look alike come from different tables or passages of the source.

Legend:
[1] = tested on: Gram-negative bacteria (Enterobacterales, Pseudomonas, Acinetobacter); conditions: for RM R (strains resistant by reference method) / RM S (strains susceptible by reference method) / RM I (strains intermediate by reference method): total of 3 sites, blood cultures; for CLSI RM R / EUCAST RM R: number of strains resistant; for CLSI RM S / EUCAST RM S: number of strains susceptible; for CLSI RM I: number of strains I
Procedure: (§1) For Colistin (on gram-negative bacteria) and vancomycin (in the case of Staphylococcus), the method used to determine the antimicrobial susceptibility was broth microdilution [5]. […] Standard methodologies were performed from the same inoculum used to spike the blood cultures. Quality control of the reference methods was also performed according to the recommendations of EUCAST and CLSI.
(§2) All the strains were classified as S, I or R according the reference methods. MIC was determined for vancomycin and colistin. The presence of ESBL on Enterobacterales group I, together with the screening for ESBL on Enterobacterales group II, and the screening for AmpC and presence of carbapenemases according EUCAST protocol for detection of mechanisms of resistance were also performed.
(§3) Positive blood cultures were spiked in blood agar and colonies identified and submitted to antimicrobial susceptibility assay according reference disk diffusion method and/or to MIC values determined by microdilution. The results were analysed using the most recent EUCAST breakpoint tables and the M100 (29th ed.) breakpoint tables from CLSI.

[2] = tested on: Gram-positive bacteria (Staphylococcus spp, Enterococcus spp); experiment: Reference method (RM): disk diffusion and/or broth microdilution, S/I/R classification, Gram-positive strains; assay type: cell-based; conditions: for EUCAST RM I: number of strains I; for CLSI RM R / EUCAST RM R: number of strains resistant; for CLSI RM S / EUCAST RM S: number of strains susceptible;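 for all read-outs here: susceptibility categories assigned with the latest EUCAST breakpoint tables or CLSI M100 29th edition breakpoints, with quality control of the reference methods following EUCAST and CLSI guidance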
Procedure: as §1, §2, §3

[3] = tested on: K. pneumoniae; experiment: MIC of strains giving very major errors (VME); assay type: cell-based
Procedure: as §1, §3

[4] = CLSI, FASTinov, Porto, spiked on blood cultures
[5] = CLSI, Hospital Ramon et Cajal, Madrid, patients' blood cultures
[6] = CLSI, Hospital S. João, Porto, patients' blood cultures
[7] = EUCAST, FASTinov, Porto, spiked on blood cultures
[8] = EUCAST, Hospital Ramon et Cajal, Madrid, patients' blood cultures
[9] = EUCAST, Hospital S. João, Porto, patients' blood cultures
[10] = CLSI, FASTinov, Porto, spiked blood cultures
[11] = CLSI, total of 3 sites, blood cultures
[12] = EUCAST, FASTinov, Porto, spiked blood cultures
[13] = EUCAST, total of 3 sites, blood cultures
[14] = EUCAST, Hospital Ramon et Cajal, Madrid, patients blood cultures
[15] = CLSI, Hospital Ramon et Cajal, Madrid, patients blood cultures

Compound	RM R (strains resistant by reference method) ([1]; CLSI)	RM S (strains susceptible by reference method) ([1]; CLSI)	RM R (strains resistant by reference method) ([1]; EUCAST)	RM S (strains susceptible by reference method) ([1]; EUCAST)	CLSI RM R [1, 4]	CLSI RM R [1, 5]	EUCAST RM R [1, 7]	EUCAST RM R [1, 8]	EUCAST RM R [1, 9]	CLSI RM S [1, 4]	CLSI RM S [1, 5]	CLSI RM S [1, 6]	EUCAST RM S [1, 7]	EUCAST RM S [1, 8]	EUCAST RM S [1, 9]	RM R (strains resistant by reference method) [2, 10]	RM S (strains susceptible by reference method) [2, 10]	RM R (strains resistant by reference method) [2, 11]	RM S (strains susceptible by reference method) [2, 11]	RM R (strains resistant by reference method) [2, 12]	further results
NCC[C@H](O)C(=O)N[C@@H]1C[C@H](N)[C@@H](O[C@H]2O[C@H](CN)[C@@H](O)[C@H](O)[C@H]2O)[C@H](O)[C@H]1O[C@H]1O[C@H](CO)[C@@H](O)[C@H](N)[C@H]1O [Amikacin]	27	316	30	313	25	1	27	1	2	158	77	81	156	77	80	–	–	–	–	–	CLSI RM R [1, 6]: 1
CC1(C)S[C@@H]2[C@H](NC(=O)[C@H](N)c3ccccc3)C(=O)N2[C@H]1C(=O)O [Ampicillin]	164	66	165	66	67	53	67	54	44	14	20	32	14	20	32	23	42	38	61	23	RM S (strains susceptible by reference method) [2, 12]: 42; RM I (strains intermediate by reference method) [2, 13]: 2; RM R (strains resistant by reference method) [2, 13]: 38; RM S (strains susceptible by reference method) [2, 13]: 59; EUCAST RM I [2, 14]: 2; CLSI RM R [2, 15]: 10; CLSI RM R [2, 6]: 5; EUCAST RM R [2, 14]: 10; EUCAST RM R [2, 9]: 5; CLSI RM S [2, 15]: 12; CLSI RM S [2, 6]: 7; EUCAST RM S [2, 14]: 10; EUCAST RM S [2, 9]: 7; RM I (strains intermediate by reference method) ([1]; CLSI): 1; CLSI RM I [1, 5]: 1; CLSI RM R [1, 6]: 44
CO/N=C(\C(=O)N[C@@H]1C(=O)N2C(C(=O)O)=C(COC(C)=O)CS[C@H]12)c1csc(N)n1 [Cefotaxime]	75	156	75	156	54	13	54	13	8	27	61	68	27	61	68	–	–	–	–	–	CLSI RM R [1, 6]: 8
CO[C@@]1(NC(=O)Cc2cccs2)C(=O)N2C(C(=O)O)=C(COC(N)=O)CS[C@@H]21 [Cefoxitin]	–	–	–	–	–	–	–	–	–	–	–	–	–	–	–	17	26	52	48	17	RM S (strains susceptible by reference method) [2, 12]: 26; RM R (strains resistant by reference method) [2, 13]: 52; RM S (strains susceptible by reference method) [2, 13]: 48; CLSI RM R [2, 15]: 9; CLSI RM R [2, 6]: 26; EUCAST RM R [2, 14]: 9; EUCAST RM R [2, 9]: 26; CLSI RM S [2, 15]: 13; CLSI RM S [2, 6]: 9; EUCAST RM S [2, 14]: 13; EUCAST RM S [2, 9]: 9
C[C@@H](O)[C@H]1C(=O)N2C(C(=O)O)=C(SCCN=CN)C[C@H]12 [Imipenem]	–	–	–	–	–	–	–	–	–	–	–	–	–	–	–	–	–	–	–	26	RM I (strains intermediate by reference method) [2, 12]: 39; EUCAST RM I [2, 14]: 12; EUCAST RM R [2, 14]: 1
CC(=O)NC[C@H]1CN(c2ccc(N3CCOCC3)c(F)c2)C(=O)O1 [Linezolid]	–	–	–	–	–	–	–	–	–	–	–	–	–	–	–	3	128	5	298	3	RM S (strains susceptible by reference method) [2, 12]: 128; RM R (strains resistant by reference method) [2, 13]: 5; RM S (strains susceptible by reference method) [2, 13]: 298; CLSI RM R [2, 6]: 2; EUCAST RM R [2, 9]: 2; CLSI RM S [2, 15]: 68; CLSI RM S [2, 6]: 102; EUCAST RM S [2, 14]: 68; EUCAST RM S [2, 9]: 102
Cc1onc(-c2ccccc2)c1C(=O)N[C@@H]1C(=O)N2[C@@H]1SC(C)(C)[C@@H]2C(=O)O [Oxacillin]	–	–	–	–	–	–	–	–	–	–	–	–	–	–	–	19	4	74	14	19	RM S (strains susceptible by reference method) [2, 12]: 4; RM R (strains resistant by reference method) [2, 13]: 74; RM S (strains susceptible by reference method) [2, 13]: 14; CLSI RM R [2, 15]: 19; CLSI RM R [2, 6]: 36; EUCAST RM R [2, 14]: 19; EUCAST RM R [2, 9]: 36; CLSI RM S [2, 15]: 5; CLSI RM S [2, 6]: 5; EUCAST RM S [2, 14]: 5; EUCAST RM S [2, 9]: 5
Amoxacillin-clavulanic acid	107	110	125	106	56	19	62	30	33	20	46	44	19	44	43	–	–	–	–	–	RM I (strains intermediate by reference method) ([1]; CLSI): 14; CLSI RM I [1, 4]: 5; CLSI RM I [1, 5]: 9; CLSI RM R [1, 6]: 32
Ceftazidime-avibactam	8	307	8	307	8	1	8	–	–	145	81	81	145	81	81	–	–	–	–	–	–
Ceftolozane-tazobactam	40	267	45	267	37	3	41	3	1	112	75	80	112	75	80	–	–	–	–	–	MIC ([3]; strain EB 032, site 3): 4 µg/mL; MIC ([3]; strain EB 101, site 1): >32 µg/mL; MIC ([3]; strain EB 677, site 1): 16 µg/mL; MIC ([3]; strain EB 679, site 1): >32 µg/mL; RM I (strains intermediate by reference method) ([1]; CLSI): 5; CLSI RM I [1, 4]: 4; CLSI RM I [1, 6]: 1
Gentamicin [Gentamicin high level]	–	–	–	–	–	–	–	–	–	–	–	–	–	–	–	12	35	15	51	12	RM S (strains susceptible by reference method) [2, 12]: 35; RM R (strains resistant by reference method) [2, 13]: 15; RM S (strains susceptible by reference method) [2, 13]: 51; CLSI RM R [2, 15]: 2; CLSI RM R [2, 6]: 1; EUCAST RM R [2, 14]: 2; EUCAST RM R [2, 9]: 1; CLSI RM S [2, 15]: 10; CLSI RM S [2, 6]: 6; EUCAST RM S [2, 14]: 10; EUCAST RM S [2, 9]: 6
